Here are results for one molecule from patent publication US20150344444A1, “BET-PROTEIN-INHIBITING DIHYDROXYQUINOXALINONES” (BAYER PHARMA AKTIENGESELLSCHAFT, priority 2012, published 2015).

In one assay the test system is MOLP-8 cells. Briefly: MOLP-8 cell proliferation assay (alamarBlue). It counts as cell-based. To be noted: inhibition of cell proliferation, 120 hours, human multiple myeloma cell line. The protocol: (§1) In accordance with the invention, the ability of the substances to inhibit cell proliferation was determined Cell viability was determined by means of the alamarBlue® reagent (Invitrogen) in a Victor X3 Multilabel Reader (Perkin Elmer). The excitation wavelength was 530 nm and the emission wavelength […].
The MOLP-8 cells (DSMZ, ACC 569) were sown at a concentration of 4000 cells/well in 100 μl of growth medium (RPMI1640, 20% FCS) on 96-well microtitre plates.
(§2) After overnight incubation at 37° C., the fluorescence values were determined (CI values). Then the plates were treated with various substance dilutions (1E-5 M, 3E-6 M, 1E-6 M, 3E-7 M, 1E-7 M, 3E-8 M, 1E-8 M) and incubated at 37° C. over 96 hours (MOLM-13, B16F10 cells) or 120 hours (MOLP-8 cells). Subsequently, the fluorescence values were determined (CO values). For the data analysis, the CI values were subtracted from the CO values and the results were compared between cells which had been treated with various dilutions of the substance or only with buffer solution. The IC50 values (substance concentration needed for 50% inhibition of cell proliferation) were calculated therefrom.
MOLP-8 human multiple myeloma cell line
Background: Alamar Blue is a resazurin reagent that responds to reducing activity.

Assay [1] addresses T1, BRD4 Bromo Domain 1 [BRD4(1)] (Homo sapiens, UniProt O60885).
T1 construct: N-terminally His6-tagged BRD4(1) (amino acids 67-152); made in house; host or cells: E. coli
The experiment in a line: BRD4(1)/acetylated peptide H4 binding assay (TR-FRET). To be noted: inhibition of interaction between His6-tagged BRD4(1) (amino acids 67-152) and acetylated histone H4 peptide. An excerpt: Protein-Protein Interaction Assay: BRD4/Acetylated Peptide H4 Binding Assay
1. Assay Description for BRD4 Bromo Domain 1 [BRD4(1)]
To assess the BRD4(1) binding strength of the substances described in this application, the ability thereof to inhibit the interaction between BRD4(1) and acetylated histone H4 in a dose-dependent manner was quantified.
For this purpose, a time-resolved fluorescence resonance energy transfer (TR-FRET) assay was used, which measures the binding between N-terminally His6-tagged BRD4(1) (amino acids 67-152) and a synthetic acetylated histone H4 (Ac-H4) peptide with sequence GRGK(Ac)GGK(Ac)GLGK(Ac)GGAK(Ac)RHGSGSK-biotin. The recombinant BRD4(1) protein produced in house according to Filippakopoulos et al., Cell, 2012, 149:214-231 was expressed in E. coli and purified by means of (Ni-NTA) affinity and (Sephadex G-75) size exclusion chromatography. The Ac-H4 peptide can be purchased, for example, from Biosyntan (Berlin, Germany).
In the assay, typically 11 different concentrations of each substance (0.1 nM, 0.33 nM, 1.1 nM, 3.8 nM, 13 nM, 44 nM, 0.15 μM, 0.51 μM, 1.7 μM, 5.9 μM and 20 μM) were analysed as duplicates on the same microtitre plate. For this purpose, 100-fold concentrated solutions in DMSO were prepared by serial dilutions (1:3.4) of a 2 mM stock solution into a clear, 384-well microtitre plate (Greiner Bio-One, Frickenhausen, Germany). From this, 50 nl were transferred into a black test plate (Greiner Bio-One, Frickenhausen, Germany). The test was started by the addition of 2 μl of a 2.5-fold concentrated BRD4(1) solution (final concentration typically 10 nM in the 5 μl of reaction volume) in aqueous assay buffer [50 mM HEPES pH 7.5, 50 mM sodium chloride (NaCl), 0.25 mM CHAPS and 0.05% serum albumin (BSA)] to the substances in the test plate. This was followed by a 10-minute incubation step at 22° C. for the pre-equilibration of putative complexes between BRD4(1) and the substances.
The mixture was then incubated in the dark at 22° C. for one hour and then at 4° C. for at least 3 hours and for no longer than overnight. The formation of BRD4(1)/Ac-H4 complexes was determined by the measurement of the resonance energy transfer from the streptavidin-Eu cryptate to the anti-6His-XL665 antibody present in the reaction. For this purpose, the fluorescence emission was measured at 620 nm and 665 nm after excitation at 330-350 nm in a TR-FRET measuring instrument, for example a Rubystar or Pherastar (both from BMG Lab Technologies, Offenburg, Germany) or a Viewlux (Perkin-Elmer). The ratio of the emissions at 665 nm and at 622 nm was taken as an indicator of the amount of BRD4(1)/Ac-H4 complexes formed.
The data (ratios) obtained were normalized, with 0% inhibition corresponding to the mean from the measurements for a set of controls (typically 32 data points) in which all the reagents were present. In these, in place of test substances, 50 nl of DMSO (100%) were used Inhibition of 100% corresponded to the mean from the measurements for a set of controls (typically 32 data points) in which all the reagents except BRD4(1) were present. The IC50 was determined by regression analysis based on a 4-parameter equation (minimum, maximum, IC50, Hill; Y=max+(min−max)/(1+(X/IC50)Hill).
In general terms: TR-FRET usually uses a lanthanide donor and a delayed reading to cut background.

For the next assay, the system named is MOLM-13 cells. Briefly: MOLM-13 cell proliferation assay (alamarBlue). It is filed as cell-based. The conditions noted are these: inhibition of cell proliferation, 96 hours, human AML cell line. As to the method: as §1
The MOLM-13 cells (DSMZ, ACC 554) were sown at a concentration of 4000 cells/well in 100 μl of growth medium (RPMI1640, 10% FCS) on 96-well microtitre plates.
as §2
MOLM-13 human AML (acute myeloid leukaemia) cell line

The subject of another assay is B16F10 cells. Briefly: B16F10 cell proliferation assay (alamarBlue). To be noted: B16-F10; inhibition of cell proliferation, 96 hours, mouse melanoma cell line. It is filed as cell-based. The protocol:
as §1
The B16F10 cells (ATCC, CRL-6475) were sown at a concentration of 300-500 cells/well in 100 μl of growth medium (DMEM with phenol red, 10% FCS) on 96-well microtitre plates.
as §2
B16F10 mouse melanoma cell line

The term IC50 denotes the midpoint of a concentration-inhibition curve. Lower therefore signals greater potency. For the molecule `C[C@@H]1C(=O)N(C)c2ccc(Nc3ccc(C(=O)NC4CCN(C)CC4)cc3)cc2N1C1CCCC1` [Example 4, 4-{[(3R)-4-cyclopentyl-1,3-dimethyl-2-oxo-1,2,3,4-tetrahydroquinoxalin-6-yl]amino}-N-(1-methylpiperidin-4-yl)benzamide], the IC50 was 468 nM in the assay with MOLP-8 cells, 50 nM in assay [1], 356 nM in the assay with MOLM-13 cells and 643 nM in the assay on B16F10 cells.
